Measurements published in PMC3160846 (PLoS ONE, 2011).
Read-outs that look alike come from different tables or passages of the source.

Experiments:
HONE-1 cells [1] = test: Western blot of Histone H3 phosphorylation and cyclin B1, HONE-1; format: cell-based, Human; details: HONE-1, 48 h
Experimental: Cells were lysed with ice-cold lysis buffer (10 mM Tris, 1 mM EDTA, 1 mM DTT, 60 mM KCl, 0.5% NP-40 and protease inhibitors). […] The resolved proteins were electrophoretically transferred to PVDF membranes (Amersham Life Science, Amersham, U.K.) for Western blot analysis. The membranes were blocked with 5% non-fat milk at room temperature for two hours, washed twice with TBST (1% Tween) and then incubated with either anti-phosphorylated Aurora-A/-B/-C kinase antibody (#2914S, Cell Signaling Technology, Danvers, MA), anti-Aurora-A and -B kinase antibody (#ab1287 and #ab2254, Abcam, Cambridge, MA), anti-phosphorylated Histone H3 antibody (#9701, Cell Signaling Technology, Danvers, MA), anti-Histone H3 antibody (#9715, Cell Signaling Technology, Danvers, MA), anti-Cyclin B1 antibody or anti-Actin antibody (#sc-245 and #sc-130065, Santa Cruz Biotechnology, Santa Cruz, CA) overnight at 4°C. Membranes were washed twice with TBST then subsequently incubated with a horseradish peroxidase-conjugated secondary antibody (Santa Cruz Biotechnology, Santa Cruz, CA) for 1 hour at room temperature. Immunoreactivity was detected by Enhanced Chemiluminescence (Amersham International, Buckingham, U.K.) and autoradiography. Experiments were repeated independently at least two times.

HONE-1 cells [2] = test: Endo-replication (polyploidy), microscopy and flow cytometry, HONE-1; format: cell-based, Human; details: HONE-1, 48 h
Experimental: Cell cycle progression was monitored using flow cytometry. After drug treatment, cells were trypsinized, washed with PBS and fixed in 80% ethanol at −20°C for 1 h. The fixed cells were stained with propidium iodide (containing RNase) at room temperature in the dark for 20 min. The DNA content was determined by a fluorescence-activated cell sorting IV flow cytometer (BD Biosciences, Franklin Lakes, NJ). For each analysis, 10,000 cells were counted and the percentage of cells in each phase was calculated using the ModFit LT software (Verity Software House, Topsham, ME). Experiments were repeated independently at least three times.

[3] = system: various human cancer cell lines; test: Clonogenic assay, panel of cancer cell lines; format: cell-based; details: for IC50: Homo sapiens
Experimental: Human lung adenocarcinoma A549 cells and NTUB1 bladder cancer cells were maintained in RPMI supplied with 10% fetal bovine serum. KB-derived MDR1-expressing cell lines (i.e. KB-VIN10 and KB-S15) and NTUB1-dervided MDR1-expressing cell line (i.e. NTU0.017) were maintained in growth medium supplemented with 10 nM vincristine, 15 nM and 17 nM paclitaxel respectively. […] KB-derived MRP1-expressing cell line, KB-7D, was maintained in growth medium supplemented with 7 µM VP-16.
(§1) Two hundred cells in logarithmic growth phase were seeded in a 6-well plate. The cells were exposed to various concentrations of the test drugs for a three-generation period. At the end of the incubation period, cells were fixed and stained with 50% ethanol containing 0.5% methylene blue for 30 min. The plates were washed five times with water and allowed to air-dry. Colonies were countered manually. The IC50 value resulting from 50% inhibition of cell growth was calculated graphically as a comparison with the growth of the control group. Each value represents the average of at least three independent experiments run in triplicates.

CHK1 = target: T1, CHK1 (Homo sapiens, UniProt O14757); test: Kinase inhibition assay, CHK1; format: biochemical
T1 construct: His-tagged CHK1 (residues M1-T476); His; made in house; host or cells: Sf9 insect cells
T1 sequence (O14757 whole entry, the tested form may be a part): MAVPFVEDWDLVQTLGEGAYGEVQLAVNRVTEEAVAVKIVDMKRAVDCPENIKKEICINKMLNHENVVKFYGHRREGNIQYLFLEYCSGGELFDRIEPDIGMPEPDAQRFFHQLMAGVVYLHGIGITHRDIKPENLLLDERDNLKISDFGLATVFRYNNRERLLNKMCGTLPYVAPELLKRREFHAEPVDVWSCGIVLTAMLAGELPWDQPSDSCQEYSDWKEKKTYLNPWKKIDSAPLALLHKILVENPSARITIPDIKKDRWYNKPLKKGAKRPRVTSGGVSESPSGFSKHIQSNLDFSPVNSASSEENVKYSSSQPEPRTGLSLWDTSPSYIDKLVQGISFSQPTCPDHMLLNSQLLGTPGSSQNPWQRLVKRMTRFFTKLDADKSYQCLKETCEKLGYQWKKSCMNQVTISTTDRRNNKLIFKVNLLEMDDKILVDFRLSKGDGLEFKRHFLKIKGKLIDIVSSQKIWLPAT
Experimental: CHK1/2 – The recombinant His-tagged CHK1 (residues M1-T476) or CHK2 (residues M1-L543) containing kinase domain were expressed in Sf9 insect cells. The kinase assay was carried out in 96-well plates with the tested compound at 30°C for 120 min.
(§2) Composition of the reaction buffers used in different kinase inhibitory assays is described in Figure S3.
25 mM HEPES pH 7.4, 10mM MgCl2, 4mM MnCl2, 0.5mM Na3VO4, 2 mM DTT, 0.02% Triton X100, 0.01% BSA, 1 mM ATP, 2 mM CHK peptide ([…]), 50~500 ng recombinant CHK1 or CHK2.

EGFR = target: T2, EGFR (Homo sapiens, UniProt P00533); test: Kinase inhibition assay, EGFR; format: biochemical
T2 construct: GST-tagged EGFR (residues G696-G1022) containing kinase domain; GST; made in house; host or cells: Sf9 insect cells
T2 sequence (P00533 696-1022): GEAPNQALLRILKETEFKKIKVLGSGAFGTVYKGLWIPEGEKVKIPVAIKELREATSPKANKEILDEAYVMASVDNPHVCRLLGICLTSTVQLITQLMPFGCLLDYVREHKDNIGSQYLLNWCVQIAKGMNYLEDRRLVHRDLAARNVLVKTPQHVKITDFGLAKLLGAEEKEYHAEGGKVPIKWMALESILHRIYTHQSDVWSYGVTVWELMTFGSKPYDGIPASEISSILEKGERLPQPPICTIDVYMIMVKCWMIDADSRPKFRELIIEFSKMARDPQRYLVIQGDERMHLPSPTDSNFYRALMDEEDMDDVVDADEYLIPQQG
Experimental: EGFR – The recombinant GST-tagged EGFR (residues G696-G1022) containing kinase domain was expressed in Sf9 insect cells. The kinase assay was carried out in 96-well plates with the tested compound at 37°C for 60 min.
as §2
25 mM Tris pH 7.4 (EGFR), 10 m M MgCl2, 4 mM MnCl2, 0.5 mM Na3VO4, 2 mM DTT, 0.02% Triton X100, 0.01% BSA, […], 2 mM polyGlu4:Tyr peptide, 80~500 ng recombinant EGFR.

A549 cells = test: Clonogenic assay, A549; format: cell-based, Human; details: Homo sapiens; A549, lung, p53 wild-type, MDR1 negative; read-out: IC50, anti-proliferative activity
Experimental: Human lung adenocarcinoma A549 cells and NTUB1 bladder cancer cells were maintained in RPMI supplied with 10% fetal bovine serum. […] KB-derived MRP1-expressing cell line, KB-7D, was maintained in growth medium supplemented with 7 µM VP-16.
as §1, with “The IC50 value resulting from 50% inhibition of cell growth was calculated graphically as a comparison with the growth of the control group.” left out

VEGFR2 = target: T3, VEGFR2 (Homo sapiens, UniProt P35968); test: Kinase inhibition assay, VEGFR2; format: biochemical
T3 construct: VEGFR2 (residues V789-V1356) containing kinase domain; GST; made in house; host or cells: Sf9 insect cells
T3 sequence (P35968 789-1356): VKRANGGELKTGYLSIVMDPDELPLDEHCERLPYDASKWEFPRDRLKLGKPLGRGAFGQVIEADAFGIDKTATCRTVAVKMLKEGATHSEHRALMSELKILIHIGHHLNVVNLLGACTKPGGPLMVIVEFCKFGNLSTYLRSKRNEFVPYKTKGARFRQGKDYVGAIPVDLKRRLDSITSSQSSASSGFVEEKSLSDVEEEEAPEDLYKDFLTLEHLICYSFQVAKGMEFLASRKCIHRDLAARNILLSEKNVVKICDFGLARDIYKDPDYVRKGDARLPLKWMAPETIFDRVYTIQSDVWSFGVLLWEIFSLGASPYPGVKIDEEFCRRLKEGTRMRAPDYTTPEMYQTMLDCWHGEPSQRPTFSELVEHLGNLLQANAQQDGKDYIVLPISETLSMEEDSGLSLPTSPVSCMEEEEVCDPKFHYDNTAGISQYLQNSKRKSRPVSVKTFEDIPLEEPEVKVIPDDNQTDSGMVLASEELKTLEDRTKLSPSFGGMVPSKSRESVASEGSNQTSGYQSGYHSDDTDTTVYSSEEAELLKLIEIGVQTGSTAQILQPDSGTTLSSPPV
Experimental: VEGFR1/2 – The recombinant GST-tagged VEGFR1 (residues R781-I1338) or VEGFR2 (residues V789-V1356) containing kinase domain were expressed in Sf9 insect cells. The kinase assay was carried out in 96-well plates with the tested compound at 30°C for 120 min.
as §2
25 mM HEPES pH 7.4, 10 mM MgCl2, 4mM MnCl2, 0.5mM Na3VO4, 2 mM DTT, 0.02% Triton X100, 0.01% BSA, 1 mM ATP, 2 mM polyGlu4:Tyr peptide, 50~100 ng recombinant VEGFR1 or VEGFR2.

- IC50 ([3]; A549, HONE-1, OECM-1, KB, HT29, NTUB1, MV4-11, IM9, read-out: IC50 against various types of cancer cells): < 500 nM
- IC50 ([3]; read-out: IC50 in all tested p53-wildtype/-negative/-mutant cancer cell lines): < 20 nM
- IC50 (CHK1): > 10000 nM
- IC50 (EGFR): > 10000 nM
- IC50 (A549 cells): 9 nM
- IC50 (VEGFR2): > 10000 nM
Structure (SMILES): CN(C)Cc1ccccc1NC(=O)Nc1ccc(CCNc2ncnc3oc(-c4ccccc4)c(Cl)c23)cc1 [BPR1K653]
- phosphorylation of Histone H3 and expression of cyclin B1 (HONE-1 cells [1]): decreased
- formation of polyploidy (populations >4N) (HONE-1 cells [2]): promoted the formation of polyploidy
- effect of verapamil treatment on sensitivity ([3]; MDR-negative and MDR1-expressing cancer cells, verapamil 10 µM, data not shown): could not further increase the sensitivity to BPR1K653
